The molecules below were run against KRas G12C (Homo sapiens, UniProt P01116, G12C) (assay: Cellular inhibition of KRas G12C measured by Phospho-ERK in NCI-H358 cells). Conditions: pERK(Thr202/Tyr204) normalized with GAPDH, NCI-H358 cells, 3 hours; read-out: IC50.
Sequence of KRas G12C (P01116 1-188 isoform P01116-2 G12C): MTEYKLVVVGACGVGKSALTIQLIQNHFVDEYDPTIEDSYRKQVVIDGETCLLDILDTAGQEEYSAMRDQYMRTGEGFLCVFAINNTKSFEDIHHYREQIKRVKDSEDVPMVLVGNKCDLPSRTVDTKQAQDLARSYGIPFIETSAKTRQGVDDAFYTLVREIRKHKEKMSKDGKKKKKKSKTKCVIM
Format: cell-based
Outline: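 NCI-H358 cells were allowed to attach for 8-12 hours, then exposed to compounds for 3 hours at 0.5% DMSO final. After formaldehyde fixation and methanol permeabilization, phospho-ERK (Thr202/Tyr204) was detected by in-cell immunofluorescence and normalized to GAPDH; IC50 came from a 4-parameter fit of percent-of-DMSO values.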
`C=CC(=O)N1CCN(c2nc(OC[C@@H]3C[C@@H](OC)CN3C)nc3c2CCN(c2cccc(Cl)c2C(F)(F)F)C3)C[C@@H]1CC#N` [Example 332, 2-[(2S)-4-[7-[3-chloro-2-(trifluoromethyl)phenyl]-2-[[(2S,4R)-4-methoxy-1-methyl-pyrrolidin-2-yl]methoxy]-6,8-dihydro-5H-pyrido[3,4-d]pyrimidin-4-yl]-1-prop-2-enoyl-piperazin-2-yl]acetonitrile] gave an IC50 of 0.0001 to 1 µM.
Molecule `C=CC(=O)N1CCN(c2nc(OC[C@@H]3CCCN3C)nc3c2CCN(c2cccc4ccc(F)cc24)C3)C[C@@H]1CC#N` [Example 333, 2-[(2S)-4-[7-(7-fluoro-1-naphthyl)-2-[[(2S)-1-methylpyrrolidin-2-yl]methoxy]-6,8-dihydro-5H-pyrido[3,4-d]pyrimidin-4-yl]-1-prop-2-enoyl-piperazin-2-yl]acetonitrile] has an IC50 of 0.0001 to 1 µM.
`C=CC(=O)N1CCN(c2nc(OC[C@H]3CCCN3CC)nc3c2CCN(c2cccc4ccccc24)C3)C[C@@H]1CC#N` [Example 334, 2-[(2S)-4-[2-[[(2R)-1-ethylpyrrolidin-2-yl]methoxy]-7-(1-naphthyl)-6,8-dihydro-5H-pyrido[3,4-d]pyrimidin-4-yl]-1-prop-2-enoyl-piperazin-2-yl]acetonitrile] was tested, and the IC50 was 0.0001 to 1 µM.
With `C=CC(=O)N1CCN(c2nc(OC[C@@H]3C[C@@H](OC)CN3CC)nc3c2CCN(c2cccc(Cl)c2C(F)(F)F)C3)C[C@@H]1CC#N` [Example 335, 2-[(2S)-4-[7-[3-chloro-2-(trifluoromethyl)phenyl]-2-[[(2S,4R)-1-ethyl-4-methoxy-pyrrolidin-2-yl]methoxy]-6,8-dihydro-5H-pyrido[3,4-d]pyrimidin-4-yl]-1-prop-2-enoyl-piperazin-2-yl]acetonitrile] the IC50 was 0.0001 to 1 µM.
Molecule `C=CC(=O)N1C[C@H](C)N(c2nc(OC[C@@H]3CCCN3C)nc3c2CCN(c2cc(O)cc4ccccc24)C3)C[C@H]1C` [Example 336, 1-[(2R,5S)-4-[7-(3-hydroxy-1-naphthyl)-2-[[(2S)-1-methylpyrrolidin-2-yl]methoxy]-6,8-dihydro-5H-pyrido[3,4-d]pyrimidin-4-yl]-2,5-dimethyl-piperazin-1-yl]prop-2-en-1-one] has an IC50 of 0.0001 to 1 µM.
Molecule `C=CC(=O)N1CCN(c2nc(OC[C@@H]3CCCN3C)nc3c2CCN(c2cccc(Cl)c2CC)C3)C[C@@H]1CC#N` [Example 337, 2-[(2S)-4-[7-(3-chloro-2-ethyl-phenyl)-2-[[(2S)-1-methylpyrrolidin-2-yl]methoxy]-6,8-dihydro-5H-pyrido[3,4-d]pyrimidin-4-yl]-1-prop-2-enoyl-piperazin-2-yl]acetonitrile] has an IC50 of 0.0001 to 1 µM.
`C=CC(=O)N1CCN(c2nc(OC[C@@H]3CCCN3C)nc3c2CCN(c2cccc4cccc(F)c24)C3)C[C@@H]1CC#N` [Example 338] gave an IC50 of 0.0001 to 1 µM.
In the case of `C=CC(=O)N1CCN(c2nc(OC[C@@H]3CCCN3CC)nc3c2CCN(c2cccc(Cl)c2C(F)(F)F)C3)C[C@@H]1CC#N` [Example 339, 2-((S)-1-acryloyl-4-(7-(3-chloro-2-(trifluoromethyl)phenyl)-2-(((S)-1-ethylpyrrolidin-2-yl)methoxy)-5,6,7,8-tetrahydropyrido[3,4-d]pyrimidin-4-yl)piperazin-2-yl)acetonitrile], the IC50 is reported as 0.0001 to 1 µM.
Molecule `C=CC(=O)N1CCN(c2nc(OC[C@@H]3CCCN3C)nc3c2CCN(c2cnccc2OC)C3)C[C@@H]1CC#N` [Example 340, 2-((S)-1-acryloyl-4-(7-(4-methoxypyridin-3-yl)-2-(((S)-1-methylpyrrolidin-2-yl)methoxy)-5,6,7,8-tetrahydropyrido[3,4-d]pyrimidin-4-yl)piperazin-2-yl)acetonitrile] has an IC50 greater than 1 µM.
For `C=CC(=O)N1CCN(c2nc(OC[C@@H]3CCCN3CCO)nc3c2CCN(c2cccc4ccccc24)C3)C[C@@H]1CC#N` [Example 341, 2-((S)-1-acryloyl-4-(2-(((S)-1-(2-hydroxyethyl)pyrrolidin-2-yl)methoxy)-7-(naphthalen-1-yl)-5,6,7,8-tetrahydropyrido[3,4-d]pyrimidin-4-yl)piperazin-2-yl)acetonitrile], the IC50 was 0.0001 to 1 µM.
Work on `CN(C)C/C=C/C(=O)N1CCN(c2nc(OC[C@@H]3C[C@@H](O)CN3C)nc3c2CCN(c2cccc(F)c2C(F)(F)F)C3)C[C@@H]1CC#N` [Example 342, 2-[(2S)-1-[(E)-4-(dimethylamino)but-2-enoyl]-4-[7-[3-fluoro-2-(trifluoromethyl)phenyl]-2-[[(2S,4R)-4-hydroxy-1-methyl-pyrrolidin-2-yl]methoxy]-6,8-dihydro-5H-pyrido[3,4-d]pyrimidin-4-yl]piperazin-2-yl]acetonitrile] yielded an IC50 of 0.0001 to 1 µM.
With `C=CS(=O)(=O)N1CCN(c2nc(OC[C@@H]3CCCN3C)nc3c2CCN(c2cccc(C)c2C)C3)CC1` [Example 343, 7-(2,3-dimethylphenyl)-2-[[(2S)-methylpyrrolidin-2-yl]methoxy]-4-(4-vinylsulfonylpiperazin-1-yl)-6,8-dihydro-5H-pyrido[3,4-d]pyrimidine] the IC50 was greater than 1 µM.
In the case of `C=CC(=O)N1CCN(c2nc(OC[C@H]3CCCN3C)nc3c2CCN(c2cc(O)cc4ccccc24)C3)C[C@@H]1CC#N` [Example 344, 2-[(2S)-4-[7-(3-hydroxy-1-naphthyl)-2-[[(2R)-1-methylpyrrolidin-2-yl]methoxy]-6,8-dihydro-5H-pyrido[3,4-d]pyrimidin-4-yl]-1-prop-2-enoyl-piperazin-2-yl]acetonitrile], the IC50 is reported as 0.0001 to 1 µM.
`C=CC(=O)N1CCN(c2nc(OC[C@@H]3CCCN3C)nc3c2CCN(c2ccncc2C)C3)C[C@@H]1CC#N` [Example 345, 2-[(2S)-4-[7-(3-methyl-4-pyridyl)-2-[[(2S)-1-methylpyrrolidin-2-yl]methoxy]-6,8-dihydro-5H-pyrido[3,4-d]pyrimidin-4-yl]-1-prop-2-enoyl-piperazin-2-yl]acetonitrile] gave an IC50 greater than 1 µM.
`CN1CCC[C@H]1COc1nc2c(c(N3CCN(C(=O)/C=C/CN4CCOCC4)[C@@H](CC#N)C3)n1)CCN(c1cccc(Cl)c1C(F)(F)F)C2` [Example 346, 2-[(2S)-4-[7-[3-chloro-2-(trifluoromethyl)phenyl]-2-[[(2S)-1-methylpyrrolidin-2-yl]methoxy]-6,8-dihydro-5H-pyrido[3,4-d]pyrimidin-4-yl]-1-[(E)-4-morpholinobut-2-enoyl]piperazin-2-yl]acetonitrile] gave an IC50 of 0.0001 to 1 µM.
Work on `CN1CCC[C@H]1COc1nc2c(c(N3CCN(C(=O)/C=C/CN4CCCC4)[C@@H](CC#N)C3)n1)CCN(c1cccc(Cl)c1C(F)(F)F)C2` [Example 347, 2-[(2S)-4-[7-[3-chloro-2-(trifluoromethyl)phenyl]-2-[[(2S)-1-methylpyrrolidin-2-yl]methoxy]-6,8-dihydro-5H-pyrido[3,4-d]pyrimidin-4-yl]-1-[(E)-4-pyrrolidin-1-ylbut-2-enoyl]piperazin-2-yl]acetonitrile] yielded an IC50 of 0.0001 to 1 µM.
Work on `C=CC(=O)N1CCN(c2nc(O[C@H](C)[C@H]3CCCN3C)nc3c2CCN(c2cc(O)cc4ccccc24)C3)C[C@@H]1CC#N` [Example 348, 2-[(2S)-4-[7-(3-hydroxy-1-naphthyl)-2-[(1R)-1-[(2R)-1-methylpyrrolidin-2-yl]ethoxy]-6,8-dihydro-5H-pyrido[3,4-d]pyrimidin-4-yl]-1-prop-2-enoyl-piperazin-2-yl]acetonitrile] yielded an IC50 of 0.0001 to 1 µM.

Reference: patent US10689377B2 (Mirati Therapeutics, Inc., priority 2017, dated 2020)
